In PMC10169810, “Ligand-induced activation and G protein coupling of prostaglandin F2α receptor” (Nature Communications, 2023):
Values joined by “and” are separate entries in the source; they are usually repeats but may differ in a detail not shown here. Identical values can stand only once. “Also recorded” adds a separate entry of the source.

How the values were obtained:
Format in all cases: cell-based
FP Q297A = target: T1, FP Q297A (Homo sapiens, UniProt P43088, Q297A); assay: IP-One accumulation assay, FP Q297A mutant; conditions: Q297A mutant vs WT FP; IP1 accumulation, AD293 cells; single values of n = 3 independent samples
T1 construct: Flag; expressed in transfected cells; host or cells: AD293 cells
T1 sequence (P43088 whole entry Q297A): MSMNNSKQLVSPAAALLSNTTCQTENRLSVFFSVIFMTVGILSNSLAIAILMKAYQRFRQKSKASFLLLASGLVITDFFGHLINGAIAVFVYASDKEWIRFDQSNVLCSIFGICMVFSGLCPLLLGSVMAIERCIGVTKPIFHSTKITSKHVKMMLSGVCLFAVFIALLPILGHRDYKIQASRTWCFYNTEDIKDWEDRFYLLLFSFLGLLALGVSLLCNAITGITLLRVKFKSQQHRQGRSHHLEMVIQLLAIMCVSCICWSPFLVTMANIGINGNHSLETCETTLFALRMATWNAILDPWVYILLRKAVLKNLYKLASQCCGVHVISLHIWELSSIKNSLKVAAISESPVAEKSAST
Method: (§1) IP-One production was measured using the IP-One HTRF kit (Cisbio)[50]. Briefly, AD293 cells (Agilent) were grown to a density of 400,000–500,000 cells per mL and then […] with separate plasmids at a suitable concentration. The culture was collected by centrifugation 24 h after incubation at 37 °C in 5% CO2 with a Stimulation Buffer. The cell suspension was then dispensed in a white 384-well plate at a volume of 7 μl per well before adding 7 μl of ligands. The mixture was incubated for 1 h at 37 °C. IP-One-d2 and anti-IP-One Cryptate dissolved in Lysis Buffer (3 μl each) were subsequently added and incubated for 15-30 min at room temperature before measurement. Intracellular IP-One measurement was carried out with the IP-One HTRF kit and EnVision multi-plate reader (PerkinElmer) according to the manufacturer’s instructions. Data were normalized to the baseline response of the ligand. pEC50 Emin, and Emax for each curve were calculated by GraphPad Prism 8.0. ∆pEC50 equals pEC50 of agonists to specific Mutant minus pEC50 of agonists to WT. Data are presented as mean values ± SEM; n = 3 independent samples; n.s. no significant; *p < 0.05; **p < 0.01; ***p < 0.001.

FP T294A = target: T2, FP T294A (Homo sapiens, UniProt P43088, T294A); assay: IP-One accumulation assay, FP T294A mutant
T2 construct: Flag; expressed in transfected cells; host or cells: AD293 cells
T2 sequence (P43088 whole entry T294A): as the sequence (P43088 whole entry Q297A) above, with T294A, A297Q counted along it
Method: as §1

FP mutant of E132 = target: T3, FP mutant of E132 (Homo sapiens, UniProt P43088, E132A); assay: IP-One accumulation assay, FP E132 mutant; conditions: E132 mutant vs WT FP
T3 construct: Flag; expressed in transfected cells; host or cells: AD293 cells
T3 sequence (P43088 whole entry E132A): as the sequence (P43088 whole entry Q297A) above, with E132A, A297Q counted along it
Method: as §1

FP L213A = target: T4, FP L213A (Homo sapiens, UniProt P43088, L213A); assay: IP-One accumulation assay, FP L213A mutant; conditions: L213A mutant vs WT FP
T4 construct: Flag; expressed in transfected cells; host or cells: AD293 cells
T4 sequence (P43088 whole entry L213A): as the sequence (P43088 whole entry Q297A) above, with L213A, A297Q counted along it
Method: as §1

FP M115A = target: T5, FP M115A (Homo sapiens, UniProt P43088, M115A); assay: IP-One accumulation assay, FP M115A mutant
T5 construct: Flag; expressed in transfected cells; host or cells: AD293 cells
T5 sequence (P43088 whole entry M115A): as the sequence (P43088 whole entry Q297A) above, with M115A, A297Q counted along it
Method: as §1

FP H81A = target: T6, FP H81A (Homo sapiens, UniProt P43088, H81A); assay: IP-One accumulation assay, FP H81A mutant; conditions: H81 mutated to alanine vs WT FP
T6 construct: Flag; expressed in transfected cells; host or cells: AD293 cells
T6 sequence (P43088 whole entry H81A): as the sequence (P43088 whole entry Q297A) above, with H81A, A297Q counted along it
Method: as §1

FP S33A = target: T7, FP S33A (Homo sapiens, UniProt P43088, S33A); assay: IP-One accumulation assay, FP S33A mutant
T7 construct: Flag; expressed in transfected cells; host or cells: AD293 cells
T7 sequence (P43088 whole entry S33A): as the sequence (P43088 whole entry Q297A) above, with S33A, A297Q counted along it
Method: as §1

FP Y92A = target: T8, FP Y92A (Homo sapiens, UniProt P43088, Y92A); assay: IP-One accumulation assay, FP Y92A mutant; conditions: Y92 mutant (alanine) vs WT FP
T8 construct: Flag; expressed in transfected cells; host or cells: AD293 cells
T8 sequence (P43088 whole entry Y92A): as the sequence (P43088 whole entry Q297A) above, with Y92A, A297Q counted along it
Method: as §1

FP L123A = target: T9, FP L123A (Homo sapiens, UniProt P43088, L123A); assay: IP-One accumulation assay, FP L123A mutant; conditions: L123A mutant vs WT FP
T9 construct: Flag; expressed in transfected cells; host or cells: AD293 cells
T9 sequence (P43088 whole entry L123A): as the sequence (P43088 whole entry Q297A) above, with L123A, A297Q counted along it
Method: as §1

FP R133A = target: T10, FP R133A (Homo sapiens, UniProt P43088, R133A); assay: IP-One accumulation assay, FP R133A mutant; conditions: for IP1 accumulation response to PGF2α (dose-response source data): FP R133A, replicate values
T10 construct: expressed in transfected cells; host or cells: AD293 cells
T10 sequence (P43088 whole entry R133A): as the sequence (P43088 whole entry Q297A) above, with R133A, A297Q counted along it
Method: as §1

FP Q250A = target: T11, FP Q250A (Homo sapiens, UniProt P43088, Q250A); assay: IP-One accumulation assay, FP Q250A mutant; conditions: Q250A mutant vs WT FP
T11 construct: expressed in transfected cells; host or cells: AD293 cells
T11 sequence (P43088 whole entry Q250A): as the sequence (P43088 whole entry Q297A) above, with Q250A, A297Q counted along it
Method: as §1

FP T184A = target: T12, FP T184A (Homo sapiens, UniProt P43088, T184A); assay: IP-One accumulation assay, FP T184A mutant; conditions: T184 mutant (alanine) vs WT FP
T12 construct: Flag; expressed in transfected cells; host or cells: AD293 cells
T12 sequence (P43088 whole entry T184A): as the sequence (P43088 whole entry Q297A) above, with T184A, A297Q counted along it
Method: as §1

human FP (WT) = target: T13, human FP (WT) (Homo sapiens, UniProt P43088); assay: IP-One (IP1) accumulation assay, wild-type FP
T13 construct: Flag; expressed in transfected cells; host or cells: AD293 cells
T13 sequence (P43088 whole entry): as the sequence (P43088 whole entry Q297A) above, with A297Q counted along it
Method: as §1

FP R291A = target: T14, FP R291A (Homo sapiens, UniProt P43088, R291A); assay: IP-One accumulation assay, FP R291A mutant
T14 construct: Flag; expressed in transfected cells; host or cells: AD293 cells
T14 sequence (P43088 whole entry R291A): as the sequence (P43088 whole entry Q297A) above, with R291A, A297Q counted along it
Method: as §1

FP S118A = target: T15, FP S118A (Homo sapiens, UniProt P43088, S118A); assay: IP-One accumulation assay, FP S118A mutant; conditions: S118A mutant vs WT FP; IP1 accumulation, AD293 cells; single values of n = 3 independent samples
T15 construct: Flag; expressed in transfected cells; host or cells: AD293 cells
T15 sequence (P43088 whole entry S118A): as the sequence (P43088 whole entry Q297A) above, with S118A, A297Q counted along it
Method: as §1

FP mutant of C134 = target: T16, FP mutant of C134 (Homo sapiens, UniProt P43088, C134A); assay: IP-One accumulation assay, FP C134 mutant; conditions: C134 mutant vs WT FP
T16 construct: expressed in transfected cells; host or cells: AD293 cells
T16 sequence (P43088 whole entry C134A): as the sequence (P43088 whole entry Q297A) above, with C134A, A297Q counted along it
Method: as §1

FP R308A = target: T17, FP R308A (Homo sapiens, UniProt P43088, R308A); assay: IP-One accumulation assay, FP R308A mutant; conditions: R308A mutant vs WT FP
T17 construct: expressed in transfected cells; host or cells: AD293 cells
T17 sequence (P43088 whole entry R308A): as the sequence (P43088 whole entry Q297A) above, with A297Q, R308A counted along it
Method: as §1

FP F265A = target: T18, FP F265A (Homo sapiens, UniProt P43088, F265A); assay: IP-One accumulation assay, FP F265A mutant
T18 construct: Flag; expressed in transfected cells; host or cells: AD293 cells
T18 sequence (P43088 whole entry F265A): as the sequence (P43088 whole entry Q297A) above, with F265A, A297Q counted along it
Method: as §1

FP W262A = target: T19, FP W262A (Homo sapiens, UniProt P43088, W262A); assay: IP-One accumulation assay, FP W262A mutant; conditions: W262 to alanine vs WT FP
T19 construct: Flag; expressed in transfected cells; host or cells: AD293 cells
T19 sequence (P43088 whole entry W262A): as the sequence (P43088 whole entry Q297A) above, with W262A, A297Q counted along it
Method: as §1

FP F205A = target: T20, FP F205A (Homo sapiens, UniProt P43088, F205A); assay: IP-One accumulation assay, FP F205A mutant; conditions: F205 to alanine vs WT FP
T20 construct: Flag; expressed in transfected cells; host or cells: AD293 cells
T20 sequence (P43088 whole entry F205A): as the sequence (P43088 whole entry Q297A) above, with F205A, A297Q counted along it
Method: as §1

FP I290A = target: T21, FP I290A (Homo sapiens, UniProt P43088); assay: IP-One accumulation assay, FP I290A mutant; conditions: L290 to alanine vs WT FP
T21 construct: Flag; expressed in transfected cells; host or cells: AD293 cells
T21 sequence (P43088 whole entry L290A): as the sequence (P43088 whole entry Q297A) above, with L290A, A297Q counted along it
Method: as §1

CCCCC[C@H](O)/C=C/[C@@H]1[C@@H](C/C=C\CCCC(=O)O)[C@@H](O)C[C@H]1O [PGF2α, Prostaglandin F2α]
∆pEC50 (pEC50 of agonist to mutant minus pEC50 to WT) (FP Q297A): -1.9 and -1.8
∆pEC50 (pEC50 of agonist to mutant minus pEC50 to WT) (FP T294A; T294A mutant vs WT FP, IP1 accumulation, AD293 cells, single values of n = 3 independent samples): -2.2 and -2.3 and -2.0
effect of mutation on agonist affinity / potency (in words) (FP T294A; T294 to alanine vs WT FP): significantly impaired the affinity
effect of mutation on agonist activity (in words) (FP mutant of E132): decreased PGF2α activity
effect of mutation on agonist potency (in words) (FP L213A): decreased potency
∆pEC50 (pEC50 of agonist to mutant minus pEC50 to WT) (FP M115A; M115A mutant vs WT FP, IP1 accumulation, AD293 cells, single values of n = 3 independent samples): -2.0 and -2.1 and -1.9
decrease of affinity by mutation (FP M115A; M115 mutated to alanine vs WT FP): approximately 100 fold
reduction of activity to FP by mutation (FP H81A): over 1000 folds
∆pEC50 (pEC50 of agonist to mutant minus pEC50 to WT) (FP S33A; S33A mutant vs WT FP, IP1 accumulation, AD293 cells, single values of n = 3 independent samples): -1.0 and -1.1 and -0.8
effect of mutation on agonist affinity / potency (in words) (FP S33A; S33 to alanine vs WT FP): significantly impaired the affinity
effect of mutation on agonist activity / potency (in words) (FP Y92A): decreased activity
effect of mutation on agonist potency (in words) (FP L123A): decreased potency
IP1 accumulation response to PGF2α (dose-response source data) (FP R133A; log[PGF2α] -5): 21.57 and 17.44 and 18.01
IP1 accumulation response to PGF2α (dose-response source data) (FP R133A; log[PGF2α] -6): 20.73 and 14.37 and 13.23
IP1 accumulation response to PGF2α (dose-response source data) (FP R133A; log[PGF2α] -7): 14.89 and 14.23 and 16.03
IP1 accumulation response to PGF2α (dose-response source data) (FP R133A; log[PGF2α] -8): 16.86 and 14.19 and 10.91
IP1 accumulation response to PGF2α (dose-response source data) (FP R133A; log[PGF2α] -9): 17.57 and 19.43 and 13.59
IP1 accumulation response to PGF2α (dose-response source data) (FP R133A; log[PGF2α] -10): 9.93 and 11.01 and 11.54
IP1 accumulation response to PGF2α (dose-response source data) (FP R133A; log[PGF2α] -11): 5.43 and 6.41 and 3.41
IP1 accumulation response to PGF2α (dose-response source data) (FP R133A; log[PGF2α] -14): 0.27 and 6.69 and 6.06
effect of mutation on agonist activity (in words) (FP R133A; R133 / R133A mutant vs WT FP): decreased PGF2α activity; also recorded: loss of PGF2α activity
effect of mutation on agonist activity (in words) (FP Q250A): loss of PGF2α activity
effect of mutation on agonist activity / potency (in words) (FP T184A): decreased activity
IP1 accumulation response to PGF2α (dose-response source data) (human FP (WT); log[PGF2α] -5, replicate values): 101.79 and 97.30 and 100.89
IP1 accumulation response to PGF2α (dose-response source data) (human FP (WT); log[PGF2α] -6, replicate values): 98.67 and 93.94 and 92.75
IP1 accumulation response to PGF2α (dose-response source data) (human FP (WT); log[PGF2α] -7, replicate values): 95.13 and 96.40 and 98.46
IP1 accumulation response to PGF2α (dose-response source data) (human FP (WT); log[PGF2α] -8, replicate values): 91.30 and 99.44 and 87.48
IP1 accumulation response to PGF2α (dose-response source data) (human FP (WT); log[PGF2α] -9, replicate values): 86.14 and 76.33 and 80.44
IP1 accumulation response to PGF2α (dose-response source data) (human FP (WT); log[PGF2α] -10, replicate values): 72.71 and 62.76 and 60.52
IP1 accumulation response to PGF2α (dose-response source data) (human FP (WT); log[PGF2α] -11, replicate values): 49.52 and 56.92 and 52.06
IP1 accumulation response to PGF2α (dose-response source data) (human FP (WT); log[PGF2α] -14, replicate values): 42.81 and 48.67 and 43.43
∆pEC50 (pEC50 of agonist to mutant minus pEC50 to WT) (FP R291A; R291A mutant vs WT FP, IP1 accumulation, AD293 cells, single values of n = 3 independent samples): -2.6 and -2.4 and -2.5
effect of mutation on agonist activity / potency (in words) (FP R291A; R291 mutant (alanine) vs WT FP): decreased activity
∆pEC50 (pEC50 of agonist to mutant minus pEC50 to WT) (FP S118A): 0.3 and 0.0 and 0.2
effect of mutation on agonist activity (in words) (FP mutant of C134): decreased PGF2α activity
effect of mutation on agonist activity (in words) (FP R308A): loss of PGF2α activity
∆pEC50 (pEC50 of agonist to mutant minus pEC50 to WT) (FP F265A; F265A mutant vs WT FP, IP1 accumulation, AD293 cells, single values of n = 3 independent samples): -2.8 and -2.7
effect of mutation on agonist affinity (in words) (FP F265A; F265 to alanine vs WT FP): significantly impaired the affinity
effect of mutation on agonist affinity / induced activation (in words) (FP W262A): significantly impaired the affinity
effect of mutation on agonist affinity (in words) (FP F205A): significantly impaired the affinity
effect of mutation on agonist affinity (in words) (FP I290A): significantly impaired the affinity
